Columns and labels:
[1] = test system: Atria; assay: Inhibition of isoproterenol-induced positive chronotropic effect in spontaneously beating isolated atria (organ bath); assay type: cell-based, guinea pigs; conditions: Cavia porcellus, 0.5 h; MY336-a 30 µg/ml, added 30 minutes before isoproterenol hydrochloride 10^-9 g/ml; atrial rate, isolated guinea pig atria; read-out: blocked the positive chronotropic effect induced by isoproterenol hydrochloride
Method: Method: • Atria were rapidly isolated from guinea pigs (body weight: 500 - 700G) and mounted in an organ bath. The bath was filled with 30 ml oxygenated (95% 02, 5% C02) Krebs-Henseleit's solution at 31il°C. Atria were allowed to beat spontaneously and the contractions were isometrically recorded using force- displacement transducers. Resting force was adjusted to 0.5g. Then, atrial rate was measured. Then, a solution of isoproterenol hydrochloride in a very small amount of water was added thereto to make the isoproterenol hydrochloride concentration to be 10-^9 g/ml, and atrial rate was measured.
The solution was discarded and the bath was filled with krebs-Henseleit's solution, and allowed to stand until the atrial rate was brought back.
Then, a solution of MY336-a in a very small amount of 50% ethanol was added thereto to make the MY336-a concentration to be 30 µg/ml, and 30 minutes thereafter, a solution of isoproterenol hydrochloride in a very small amount of water was added thereto to make the isoproterenol hydrochloride concentration to be 10-^9 g/ml, and atrial rate was measured.

[2] = Solubility in various solvents; assay type: physicochemical
[3] = test system: adrenergic receptor; assay: Agonistic/antagonistic activity on adrenergic receptor

Solubility ([2]; in acetone, hexane and ether): sparingly soluble
Solubility ([2]; in acidic water): readily soluble
Solubility ([2]; in water and methanol): soluble
agonistic activity on adrenergic receptor [3]: no agonistic activity
antagonistic activity on adrenergic receptor [3]: has an antagonistic activity
Structure (SMILES): COc1c(C)cc2c(c1O)C(CO)NC(CO)C2 (stereo not drawn) [MY336-a]
inhibition at 30 µg/mL [1]: 84.9%

— patent EP0130554A1, “Novel, physiologically active substance, process for production thereof and pharmaceutical composition containing the same” (KYOWA HAKKO KOGYO CO., LTD., priority 1983, dated 1985)
